This note sets out measurements from PubChem BioAssay AID256 (DTP/NCI, 2004).

For this test, the system named is CD2F1 mice, L1210 leukemia ip, survival T/C. As to the kind of experiment: NCI In Vivo Anticancer Drug Screen. Data for tumor model L1210 Leukemia (intraperitoneal) in CD2F1 (CDF1) mice. As to conditions: higher = longer survival. In outline:
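Compound-dosed mice with transplantable tumor versus matched vehicle controls; endpoint ratio T/C reported.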

Where [1] appears, read: endpoint: mean survival time, dose: 100.0 mg/kg/injection, schedule: Q04DX003 (ip), vehicle: saline.
[2] abbreviates: endpoint: mean survival time, dose: 200.0 mg/kg/injection, schedule: Q04DX003 (ip), vehicle: saline.
The mark [3] stands for this setting: endpoint: mean survival time, dose: 400.0 mg/kg/injection, schedule: Q04DX003 (ip), vehicle: saline.
Setting [4] is: endpoint: mean survival time, dose: 5.0 mg/kg/injection, schedule: Q01DX001 (ip), vehicle: saline.
The mark [5] stands for this setting: endpoint: mean survival time, dose: 10.0 mg/kg/injection, schedule: Q01DX001 (ip), vehicle: saline.
The mark [6] stands for this setting: endpoint: mean survival time, dose: 100.0 mg/kg/injection, schedule: Q04DX002 (ip), vehicle: saline with Tween-80.
Setting [7] is: endpoint: mean survival time, dose: 100.0 mg/kg/injection, schedule: Q01DX001 (ip), vehicle: saline with Tween-80.
The mark [8] stands for this setting: endpoint: mean survival time, dose: 100.0 mg/kg/injection, schedule: Q04DX003 (ip), vehicle: saline with Tween-80.
The mark [9] stands for this setting: endpoint: mean survival time, dose: 200.0 mg/kg/injection, schedule: Q01DX001 (ip), vehicle: saline with Tween-80.
Setting [10] is: endpoint: mean survival time, dose: 200.0 mg/kg/injection, schedule: Q04DX002 (ip), vehicle: saline with Tween-80.
Where [11] appears, read: endpoint: mean survival time, dose: 200.0 mg/kg/injection, schedule: Q04DX003 (ip), vehicle: saline with Tween-80.
Setting [12] is: endpoint: mean survival time, dose: 100.0 mg/kg/injection, schedule: Q01DX009 (ip), vehicle: saline with Tween-80.
[13] abbreviates: endpoint: mean survival time, dose: 200.0 mg/kg/injection, schedule: Q01DX009 (ip), vehicle: saline with Tween-80.
Setting [14] is: endpoint: mean survival time, dose: 400.0 mg/kg/injection, schedule: Q04DX003 (ip), vehicle: saline with Tween-80.

“And” between values parts separate entries of the source, which are not always exact repeats. Equal entries are not always repeated. Toxic doses and inconclusive results are not listed.

In the case of `Cc1ccc(C2CC(c3ccccc3)=NN2C)cc1` (configuration not stated), the T/C is 96 % of control (endpoint: mean survival time, dose: 75.0 mg/kg/injection, schedule: Q01DX001 (ip), vehicle: other); 90 % of control (endpoint: mean survival time, dose: 150.0 mg/kg/injection, schedule: Q01DX001 (ip), vehicle: other); 93 % of control (endpoint: mean survival time, dose: 300.0 mg/kg/injection, schedule: Q01DX001 (ip), vehicle: other).

`CCCCC(Sc1nn(C2OC(COC(=O)c3ccccc3)C(OC(=O)c3ccccc3)C2OC(=O)c2ccccc2)c(=O)[nH]c1=O)C(=O)OCC` (configuration not stated): the T/C was 101 % of control (endpoint: mean survival time, dose: 12.5 mg/kg/injection, schedule: Q01DX005 (ip), vehicle: distilled water + Tween-80); 95 % of control (endpoint: mean survival time, dose: 25.0 mg/kg/injection, schedule: Q01DX005 (ip), vehicle: distilled water + Tween-80); 97 % of control (endpoint: mean survival time, dose: 50.0 mg/kg/injection, schedule: Q01DX005 (ip), vehicle: distilled water + Tween-80); 95 % of control (endpoint: mean survival time, dose: 100.0 mg/kg/injection, schedule: Q01DX005 (ip), vehicle: distilled water + Tween-80); 94 % of control (endpoint: mean survival time, dose: 200.0 mg/kg/injection, schedule: Q01DX005 (ip), vehicle: distilled water + Tween-80).

`O=[N+]([O-])c1cccc(N=C(c2ccccc2)N(O)c2ccccc2)c1`: the T/C reads like this: (endpoint: mean survival time, dose: 100.0 mg/kg/injection, schedule: Q01DX001 (ip), vehicle: saline) 100 % of control; under setting [1], 102 % of control; (endpoint: mean survival time, dose: 200.0 mg/kg/injection, schedule: Q01DX001 (ip), vehicle: saline) 100 % of control; under setting [2], 97 % of control; (endpoint: mean survival time, dose: 400.0 mg/kg/injection, schedule: Q01DX001 (ip), vehicle: saline) 100 % of control; under setting [3], 103 % of control.

For `CC(C)(CNC1CCCCC1)OC(=O)c1ccc(N)cc1`, the T/C under setting [4] was 102 % of control; the T/C under setting [5] is 96 % of control; the T/C (endpoint: mean survival time, dose: 20.0 mg/kg/injection, schedule: Q01DX001 (ip), vehicle: saline) was 98 % of control; the T/C (endpoint: mean survival time, dose: 40.0 mg/kg/injection, schedule: Q01DX001 (ip), vehicle: saline) is 104 % of control.

For `O=[N+]([O-])c1cc(S(=O)(=O)O)cc(S(=O)(=O)O)c1O`, the T/C was 100 % of control (endpoint: mean survival time, dose: 100.0 mg/kg/injection, schedule: Q04DX002 (ip), vehicle: saline); 107 % of control (endpoint: mean survival time, dose: 200.0 mg/kg/injection, schedule: Q04DX002 (ip), vehicle: saline); 103 % of control (endpoint: mean survival time, dose: 400.0 mg/kg/injection, schedule: Q04DX002 (ip), vehicle: saline).

With `Cc1cc(N=Nc2ccc(S(=O)(=O)[O-])cc2)cc(C(=O)[O-])c1[OH2+].Cc1cc(N=Nc2ccc(S(=O)(=O)[O-])cc2)cc(C(=O)[O-])c1[OH2+].NC1CCCCC1N.[Na+].[Pt+4]`, the T/C is 172 % of control (endpoint: median survival time, dose: 6.25 mg/kg/injection, schedule: Q04DX003 (ip), vehicle: saline with Tween-80); 172 % of control (endpoint: median survival time, dose: 6.25 mg/kg/injection, schedule: Q04DX003 (ip), vehicle: saline); 344 % of control (endpoint: median survival time, dose: 12.5 mg/kg/injection, schedule: Q04DX003 (ip), vehicle: saline with Tween-80); 253 % of control (endpoint: median survival time, dose: 12.5 mg/kg/injection, schedule: Q04DX003 (ip), vehicle: saline); 313 % of control (endpoint: median survival time, dose: 25.0 mg/kg/injection, schedule: Q04DX003 (ip), vehicle: saline with Tween-80); 289 % of control (endpoint: median survival time, dose: 25.0 mg/kg/injection, schedule: Q04DX003 (ip), vehicle: saline). Moreover, for the setting “endpoint: median survival time, dose: 50.0 mg/kg/injection, schedule: Q04DX003 (ip), vehicle: saline with Tween-80”, the T/C is 106 % of control.

Turning to `CC1(C)COCN1COC1CCCCC1`, the T/C (endpoint: mean survival time, dose: 12.5 mg/kg/injection, schedule: Q01DX009 (ip), vehicle: suspension in saline) was 95 % of control; the T/C (endpoint: mean survival time, dose: 25.0 mg/kg/injection, schedule: Q01DX009 (ip), vehicle: suspension in saline) is 100 % of control; the T/C (endpoint: mean survival time, dose: 50.0 mg/kg/injection, schedule: Q01DX009 (ip), vehicle: suspension in saline) was 103 % of control; the T/C (endpoint: mean survival time, dose: 100.0 mg/kg/injection, schedule: Q01DX009 (ip), vehicle: suspension in saline) was 108 % of control; the T/C (endpoint: mean survival time, dose: 200.0 mg/kg/injection, schedule: Q01DX009 (ip), vehicle: suspension in saline) was 105 % of control.

Take `CN1C(=O)CCSC1=S`: the T/C by setting is: (endpoint: mean survival time, dose: 25.0 mg/kg/injection, schedule: Q04DX002 (ip), vehicle: saline with Tween-80) 94 % of control; (endpoint: mean survival time, dose: 50.0 mg/kg/injection, schedule: Q04DX002 (ip), vehicle: saline with Tween-80) 105 % of control; under setting [6], 105 % of control.

Take `CCC(C#N)=C1CCCCC1`: the T/C is 93 % of control (endpoint: mean survival time, dose: 25.0 mg/kg/injection, schedule: Q04DX003 (ip), vehicle: saline); 91 % of control (endpoint: mean survival time, dose: 50.0 mg/kg/injection, schedule: Q04DX003 (ip), vehicle: saline); 91 % of control under setting [1].

On to `CC(O)CC1CCCC(C)N1` (configuration not stated), for which the T/C reads like this: (endpoint: mean survival time, dose: 50.0 mg/kg/injection, schedule: Q04DX003 (ip), vehicle: saline with Tween-80) 90 % of control and 100 % of control; under setting [7], 101 % of control; under setting [6], 100 % of control and 106 % of control; under setting [8], 100 % of control and 101 % of control; under setting [9], 101 % of control; under setting [10], 98 % of control and 100 % of control. Also, the T/C under setting [11] was 93 % of control and 100 % of control.

`C=C1C(=O)OC2C1C(OC(=O)/C(=C/C)COC(C)=O)CC1(CO1)C1C(OC(=O)/C(=C/C)CO)C=C(C)C21` (configuration not stated): the T/C by setting is: under setting [7], 88 % of control; (endpoint: mean survival time, dose: 400.0 mg/kg/injection, schedule: Q01DX001 (ip), vehicle: saline with Tween-80) 93 % of control.

In the case of `Nc1ccnc(SCc2ccc3ccccc3c2)n1`, the T/C under setting [6] was 93 % of control; the T/C under setting [10] was 101 % of control; the T/C (endpoint: mean survival time, dose: 400.0 mg/kg/injection, schedule: Q04DX002 (ip), vehicle: saline with Tween-80) was 101 % of control.

With `CN(C)CCP(=O)(O)O`, the T/C by setting is: under setting [1], 101 % of control; under setting [2], 98 % of control; under setting [3], 98 % of control.

On to `CC(=O)CC(OC(=O)c1cc([N+](=O)[O-])cc([N+](=O)[O-])c1)(C(F)(F)F)C(F)(F)F`, for which the T/C (endpoint: mean survival time, dose: 100.0 mg/kg/injection, schedule: Q04DX003 (ip), vehicle: Klucel (hydroxypropylcellulose) (HPC)) is 91 % of control.

Take `Cn1cnc2ccc(Cl)cc21`: the T/C reads like this: (endpoint: mean survival time, dose: 50.0 mg/kg/injection, schedule: Q01DX009 (ip), vehicle: saline with Tween-80) 102 % of control; under setting [12], 98 % of control; under setting [13], 95 % of control.

In the case of `CC(=O)C1CCC2CC3CCCCC3N(C(C)=O)C2C1` (configuration not stated), the T/C is 107 % of control (endpoint: mean survival time, dose: 50.0 mg/kg/injection, schedule: Q01DX001 (ip), vehicle: saline with Tween-80); 105 % of control under setting [7]; 100 % of control under setting [9].

Turning to `Cc1ccc(S(=O)(=O)SC(F)(F)F)cc1`, the T/C under setting [4] was 106 % of control and the T/C under setting [5] is 104 % of control.

As for `CCC12C(=O)C(CC)(C3=C1c1cccc4cccc3c14)C1C(=O)OC(=O)C12` (configuration not stated), the T/C is 97 % of control under setting [8], 97 % of control under setting [11] and 97 % of control under setting [14].

Regarding `CN1CCc2c(c3ccccc3c3ccccc23)C1`, the T/C was 104 % of control (endpoint: mean survival time, dose: 3.12 mg/kg/injection, schedule: Q01DX009 (ip), vehicle: Klucel (hydroxypropylcellulose) (HPC)); 101 % of control (endpoint: mean survival time, dose: 6.25 mg/kg/injection, schedule: Q01DX009 (ip), vehicle: Klucel (hydroxypropylcellulose) (HPC)); 97 % of control (endpoint: mean survival time, dose: 12.5 mg/kg/injection, schedule: Q01DX009 (ip), vehicle: Klucel (hydroxypropylcellulose) (HPC)); 95 % of control (endpoint: mean survival time, dose: 25.0 mg/kg/injection, schedule: Q01DX009 (ip), vehicle: Klucel (hydroxypropylcellulose) (HPC)); 106 % of control (endpoint: mean survival time, dose: 50.0 mg/kg/injection, schedule: Q01DX009 (ip), vehicle: Klucel (hydroxypropylcellulose) (HPC)); 113 % of control (endpoint: mean survival time, dose: 100.0 mg/kg/injection, schedule: Q01DX009 (ip), vehicle: Klucel (hydroxypropylcellulose) (HPC)).

Regarding `CC(NC(=O)OCc1ccccc1)C(=O)O` (configuration not stated), the T/C is 97 % of control under setting [12]; 100 % of control under setting [8]; 94 % of control under setting [13]; 105 % of control under setting [11]; 103 % of control under setting [14].
